These results are taken from PubChem BioAssay (NCI).

“And” between values parts separate entries of the source, which are not always exact repeats. Identical values can stand only once.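 Dose response: 5 concentrations. Exposure: 48 h. Format: 96-well plates. Endpoint: linear interpolation; highest concentration if not reached. The concentration for 50% growth inhibition is given as GI50. TGI marks complete inhibition of growth.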 Some results are limits rather than exact numbers.

Test systems include COLO 205 colon; MDA-MB-231 breast; MDA-MB-435; HOP-62 NSCLC; PC-3 prostate; CCRF-CEM leukemia; KM12 colon; SW-620 colon; A549 NSCLC.
Test in all cases: NCI-60 cell line screen, 48 h

On to `CCN1CCN(Cc2ccc(-c3cc4c(N[C@H](C)c5ccccc5)ncnc4[nH]3)cc2)CC1`, for which the GI50 with COLO 205 colon was 1.9 µM and 1.73 µM; with MDA-MB-231 breast, 2.08 µM and 2.88 µM; with MDA-MB-435, 1.95 µM and 2.74 µM; with HOP-62 NSCLC, 3.52 µM and 3.53 µM; in the experiment with PC-3 prostate, 2.24 µM and 5.07 µM; with CCRF-CEM leukemia it was 2.41 µM and 3.23 µM. Further, the GI50 with KM12 colon is 3.84 µM and 3.5 µM; in the experiment with SW-620 colon, 3.45 µM and 5.46 µM; with A549 NSCLC, 1.71 µM and 3.08 µM. Moreover, the TGI with COLO 205 colon was 3.6 µM and 3.52 µM; in the experiment on MDA-MB-231 breast, 8.3 µM and > 10 µM; in the experiment on MDA-MB-435, 4.63 µM and 8.4 µM; with HOP-62 NSCLC, 18.3 µM and > 10 µM; in the experiment on PC-3 prostate, 18.7 µM and > 10 µM; in the experiment with CCRF-CEM leukemia it was 6.43 µM and > 10 µM. Further, the TGI with KM12 colon was 14.4 µM and > 10 µM; in the experiment on SW-620 colon, 19.9 µM and > 10 µM; in the experiment on A549 NSCLC it was 13.1 µM and > 10 µM.

`CCCCON(OC(=O)c1ccccc1)C(=O)c1ccccc1`: the GI50 was greater than 100 µM in the experiment on COLO 205 colon; greater than 100 µM in the experiment on MDA-MB-231 breast; greater than 100 µM with MDA-MB-435; greater than 100 µM with HOP-62 NSCLC; greater than 100 µM in the experiment with PC-3 prostate; 49.8 µM in the experiment with CCRF-CEM leukemia. For the same compound, the GI50 in the experiment with KM12 colon, in the experiment on SW-620 colon and in the experiment on A549 NSCLC was greater than 100 µM each time. Moreover, the TGI in the experiment with COLO 205 colon, with MDA-MB-231 breast, in the experiment on MDA-MB-435, with HOP-62 NSCLC, in the experiment with PC-3 prostate and with CCRF-CEM leukemia was greater than 100 µM each time. In addition, the TGI with KM12 colon, in the experiment on SW-620 colon and with A549 NSCLC was greater than 100 µM in each case.

Take `COc1cc(C(=O)/C=C/c2c(C)n([O-])c3ccc(C)cc3[n+]2=O)cc(OC)c1OC`: the GI50 with COLO 205 colon was 2 µM; in the experiment with MDA-MB-231 breast it was 10.6 µM; in the experiment with MDA-MB-435 it was 6.47 µM; in the experiment with HOP-62 NSCLC, 21.3 µM; in the experiment on PC-3 prostate, 12.9 µM; in the experiment on CCRF-CEM leukemia it was 2.83 µM. Further, the GI50 in the experiment on KM12 colon is 13 µM; with SW-620 colon, 1.53 µM; with A549 NSCLC, 15.7 µM. Further, the TGI with COLO 205 colon was 3.99 µM; in the experiment on MDA-MB-231 breast, greater than 100 µM; in the experiment with MDA-MB-435, greater than 63.4 µM; in the experiment with HOP-62 NSCLC, 47.8 µM; with PC-3 prostate, greater than 59.3 µM; in the experiment on CCRF-CEM leukemia it was greater than 100 µM. In addition, the TGI in the experiment on KM12 colon worked out at 27.6 µM; in the experiment on SW-620 colon it was 3.02 µM; in the experiment on A549 NSCLC it was 82.1 µM.

Regarding `CC(=O)N[C@@H](Cc1ccc(OP(=O)(O)O)cc1)C(=O)N[C@H]1CCC(=O)N2CCC[C@@H](C(=O)NCc3ccc(Cl)cc3)N2C1=O`, the GI50 in the experiment with COLO 205 colon, in the experiment with MDA-MB-231 breast, in the experiment on MDA-MB-435, in the experiment with HOP-62 NSCLC, in the experiment on PC-3 prostate and in the experiment with CCRF-CEM leukemia was greater than 25 µM throughout. Besides, the GI50 with KM12 colon, in the experiment with SW-620 colon and with A549 NSCLC was greater than 25 µM throughout. For the same compound, the TGI in the experiment with COLO 205 colon, with MDA-MB-231 breast, in the experiment with MDA-MB-435, with HOP-62 NSCLC, with PC-3 prostate and in the experiment on CCRF-CEM leukemia was greater than 25 µM in each case. For the same compound, the TGI in the experiment on KM12 colon, in the experiment on SW-620 colon and with A549 NSCLC was greater than 25 µM each time.

Regarding `N#Cc1c(-c2ccccc2)nc(SCC2CO2)nc1N1CCOCC1` (stereo unspecified), the GI50 is 11.3 µM in the experiment on COLO 205 colon; 15.8 µM in the experiment on MDA-MB-231 breast; 9.56 µM in the experiment on MDA-MB-435; 6.8 µM in the experiment with HOP-62 NSCLC; 6.19 µM in the experiment with PC-3 prostate; greater than 31 µM in the experiment with CCRF-CEM leukemia. Further, the figures for the GI50 in the experiment with KM12 colon, with SW-620 colon and in the experiment with A549 NSCLC were 25.8 µM, 28.8 µM and 21 µM, respectively. Besides, the TGI in the experiment on COLO 205 colon was 67.6 µM; with MDA-MB-231 breast, greater than 100 µM; in the experiment with MDA-MB-435, greater than 100 µM; with HOP-62 NSCLC, greater than 86.8 µM; in the experiment on PC-3 prostate, greater than 100 µM; in the experiment with CCRF-CEM leukemia, greater than 100 µM. Moreover, the TGI with KM12 colon, in the experiment with SW-620 colon and in the experiment with A549 NSCLC was greater than 100 µM each time.

Regarding `CN(C)CCOc1ccc(-c2nc(-c3ccc4c(c3)CC/C4=N\O)c(-c3ccncc3)[nH]2)cc1`, the GI50 in the experiment on COLO 205 colon is 0.00987 µM and 0.0293 µM; in the experiment on MDA-MB-231 breast, 3.27 µM and 1.63 µM; in the experiment with HOP-62 NSCLC, 4.3 µM and 4.48 µM; in the experiment with PC-3 prostate it was 4.09 µM and 5.66 µM; in the experiment on CCRF-CEM leukemia, 4.32 µM and 2.43 µM; with KM12 colon, 4.39 µM and 2.65 µM. In addition, the GI50 in the experiment with SW-620 colon was 4.07 µM and 2.15 µM; in the experiment with A549 NSCLC it was 4.76 µM and 6.36 µM. Besides, the TGI was 3.1 µM and 5.06 µM in the experiment with COLO 205 colon; 7.26 µM and 4.88 µM in the experiment on MDA-MB-231 breast; 5.17 µM and 41.2 µM in the experiment with MDA-MB-435; 9.23 µM and 13.1 µM in the experiment on HOP-62 NSCLC; 8.12 µM and 13.7 µM in the experiment with PC-3 prostate; 11.3 µM and 10.2 µM in the experiment on CCRF-CEM leukemia. Besides, the TGI in the experiment on KM12 colon was 8.07 µM and 6.18 µM; with SW-620 colon, 7.72 µM and 4.78 µM; in the experiment on A549 NSCLC, 9.68 µM and 32.7 µM.

Take `COc1ccc2[nH]c(=O)c3c4ccccc4cn3c2c1`: the GI50 with COLO 205 colon is 0.373 µM; in the experiment with MDA-MB-231 breast, 1.24 µM; in the experiment on MDA-MB-435, 0.154 µM; with HOP-62 NSCLC, 0.228 µM; in the experiment with PC-3 prostate, 0.429 µM; in the experiment with CCRF-CEM leukemia, 0.322 µM. The GI50 is 0.323 µM in the experiment on KM12 colon, 0.319 µM with SW-620 colon and 0.554 µM in the experiment on A549 NSCLC. Besides, the TGI stood at 1.36 µM in the experiment with COLO 205 colon; 5.85 µM with MDA-MB-231 breast; 0.411 µM in the experiment on MDA-MB-435; 0.885 µM with HOP-62 NSCLC; 4.08 µM with PC-3 prostate; 1.48 µM in the experiment on CCRF-CEM leukemia. The TGI in the experiment on KM12 colon was determined as 1.65 µM; in the experiment on SW-620 colon, 1.39 µM; with A549 NSCLC it was 2.77 µM.

Turning to `Cc1cc2nc(C(C)C(=O)c3ccc(Cl)cc3)c(=O)[nH]c2cc1C` (stereo unspecified), the TGI in the experiment with COLO 205 colon was 53.7 µM; in the experiment on MDA-MB-231 breast, greater than 100 µM; in the experiment on MDA-MB-435, 49.6 µM; with HOP-62 NSCLC, greater than 100 µM; with PC-3 prostate, greater than 100 µM; with CCRF-CEM leukemia it was greater than 100 µM. For the same compound, the TGI with KM12 colon, in the experiment on SW-620 colon and in the experiment on A549 NSCLC was greater than 100 µM each time.

For the compound `CC(=O)NCCc1c2c(c3nccc4c3c1Nc1ccccc1-4)OCS2`, the GI50 in the experiment with COLO 205 colon was 2.38 µM; in the experiment with MDA-MB-231 breast, 0.594 µM; with MDA-MB-435, 3.88 µM; with HOP-62 NSCLC it was 3.6 µM; in the experiment with PC-3 prostate it was 2.95 µM; in the experiment with CCRF-CEM leukemia it was 1.28 µM. Further, the GI50 was 2.39 µM in the experiment with KM12 colon, 0.226 µM in the experiment on SW-620 colon and 1.29 µM in the experiment with A549 NSCLC. Besides, the TGI in the experiment with COLO 205 colon amounted to 15.6 µM; in the experiment on MDA-MB-231 breast, 6.61 µM; in the experiment on MDA-MB-435, 18.9 µM; with HOP-62 NSCLC, 34.1 µM; with PC-3 prostate, 9.33 µM; with KM12 colon it was 10.8 µM. The TGI was 8.15 µM with SW-620 colon and 11.3 µM with A549 NSCLC.
